In patent US4959378A, “Aminopyridinylaminophenol compounds useful as topical antiinflammatory agents for the treatment of skin disorders” (Hoechst-Roussel Pharmaceuticals Inc., priority 1989, dated 1990):

Legend:
[1] = tested on: naja naja (snake venom) phospholipase A2 -induced paw edema; test: Phospholipase A2-induced Paw Edema (PIPE); assay type: in vivo, rat; details: for PIPE (0.1 M), difference in edema vs. control: 0.1M test compound injected with PLA2 (3 units/paw) subplantar, rat left hindpaw, two hours post administration
Method: Phospholipase A2 -induced Paw Edema (PIPE)
The ability of compounds to prevent naja naja (snake venom) phospholipase A2 -induced paw edema in male Wistar rates (100-125 g) was measured. PLA2 (3 units/paw) alone or with 0.1M of the test compound was injected in the subplantar region of the rat left hindpaw. Immediately subsequent to the injection and at two hours post administration the paw was immersed in a mercury bath, and paw displacement was measured on a recorder via a transducer. […] See Giessler, A. J. et al., Agents and Actions, Vol. 10, Trends in Inflammation Research (1981), p. 195.

[2] = target: T1, porcine pancreatic PLA2 (Sus scrofa, UniProt P00592); test: In Vitro Phospholipase A2 Assay (PLA2); assay type: biochemical; details: 0.01 M test compound; porcine pancreatic PLA2 3.2 units, pH 8.0, 37° C.; read-out: PLA2 (0.01 M), difference vs. control
T1 construct: from tissue; host or cells: porcine pancreas
T1 sequence (P00592 23-146): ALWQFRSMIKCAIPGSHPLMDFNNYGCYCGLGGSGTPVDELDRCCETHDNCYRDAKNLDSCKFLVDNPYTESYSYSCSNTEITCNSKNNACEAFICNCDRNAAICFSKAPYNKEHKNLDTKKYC
Method: In Vitro Phospholipase A2 Assay (PLA2)
The ability of a compound to modulate PLA2 activity (cleavage of ^14 C-dipalmitoyl phosphotidylcholine at the 2-position to ^14 C-palmitic acid) was quantitated in this assay. The reaction mixture contained Tris buffer (25 mM), pH 8.0, calcium chloride (2.0 mM), bovine serum albumin (0.5 mg), dipalmitoyl phosphotidylcholine (8×10^-5M), (^14 C-palmitoyl)dipalmitoyl phosphotidylcholine (6×10^3cpm), porcine pancreatic PLA2 (3.2 units) and the test compound. The reaction was run at 37° C. in a shaking incubator. The reaction was quenched and an internal standard was added in order to determine sample recovery. The samples were loaded onto C18 columns, eluted with ethanol, and the radioactivity was then measured. […] See Feyen, J. H. M., et al., Journal of Chromatography 259 (1983), pp. 338-340.

C[C@]12CCC(=O)C=C1CC[C@@H]1[C@@H]2[C@@H](O)C[C@@]2(C)[C@H]1CC[C@]2(O)C(=O)CO [hydrocortisone, reference compound]
ED50 (PIPE standard) ([1]; standard, subplantar injection with PLA2, male Wistar rats): 0.46 M

Nc1ccncc1Nc1ccc(O)cc1.O=C(O)/C=C\C(=O)O [4-[(4-Amino-3-pyridinyl)amino]phenol maleate]
PIPE (0.1 M), difference in edema vs. control [1]: -62% | inhibition at 10000 µM [2]: 35%

Nc1ccncc1Nc1cccc(O)c1 [3-[(4-Amino-3-pyridinyl)amino]phenol]
PIPE (0.1 M), difference in edema vs. control [1]: -52% | inhibition at 10000 µM [2]: 35%
